Experimental data taken from patent US12133855B2, “Lipid-like nanocomplexes and uses thereof” (Trustees of Tufts College, priority 2018, dated 2024).
Where two headings read alike, the source gives them in different places.

Columns and labels:
Format in all cases: cell-based
HeLa cells = test: Internalization of Nile red loaded nanoparticles (NR+ cells); settings: 8 h of exposure
Description: (§1) The internalization kinetics and efficiencies of OCholB LNPs were then studied using NR loaded LNPs and HeLa cells. […] Next, all of the NR delivery efficiencies of eight OCholB LNPs were determined after 8 h of exposure. […] Representative fluorescent images of NR/LNPs (NR/75-OCholB, NR/76-OCholB and NR/77-OCholB) treated HeLa cells are shown in FIG. 12D, from which it is easily observed that NR was delivered into the cells and mainly distributed in cytoplasm, by OCholB LNPs. Next, the internalization of negatively charged hydrophilic fluorescent dye, calcein, was studied. […] Next, the use of OCholB LNPs for the intracellular delivery of macromolecular cargo was explored, using fluorescent recombinant (−30)GFP-Cre protein and HeLa-DsRed cells as the model system. […] Delivery efficiency was tested at a range of (−30)GFP-Cre protein concentrations (25, 50 and 100 nM), with a consistent lipid/protein ratio (i.e., delivery with the final lipid concentration of 1.7, 3.3, and 6.6 μg mL^−1 respectively). 33.2%, 43.8% and 74% of GFP positive (GFP^+) cells were recorded for (−30)GFP-Cre/Lpf2k treated cells with the concentration of (−30)GFP-Cre 25 nM, 50 nM and 100 nM, respectively. […] The typical flow cytometry profiles of naked (−30)GFP-Cre protein and (−30)GFP-Cre loaded nanoparticles ((−30)GFP-Cre/75-OCholB, (−30)GFP-Cre/76-OCholB, (−30)GFP-Cre/77-OCholB and (−30)GFP-Cre/Lpf2k) treated HeLa-DsRed cells were shown in and FIG. 12H ([lipidoid]=6.6 μg mL^−1 and [(−30)GFP-Cre]=100 nM), which is consistent with the statistical results shown in FIG. 12G. Furthermore, the representative fluorescent images from the protein and protein/nanoparticle treated HeLa-DsRed cells are also shown in FIG. 12I.

HeLa-DsRed cells [1] = settings: for mean fluorescence intensity of treated cells / cell morphology (bright field images) vs untreated cells: [lipidoid]=6.6 μg mL^−1, [(−30)GFP-Cre]=100 nM; for green fluorescence signals (fluorescent images): protein/nanoparticle treated HeLa-DsRed cells
Description: as §1

HeLa-DsRed cells [2] = test: Genome editing efficiency of (−30)GFP-Cre/OCholB LNPs (DsRed+ cells); settings: for DsRed^+ cells: 8 h exposure, 24 h incubation
Source text: In this context, the internalization mechanism of the (−30)GFP-Cre/LNPs complexes was studied at first, by introducing different endocytosis inhibitors, i.e., sucrose (clathrin-mediated endocytosis inhibitor), methyl-β-cyclodextrin (M-β-CD, cholesterol-depleting agent), dynasore (dynamin II inhibitor) and nystatin (caveolin-mediated endocytosis inhibitor), following our previously reported procedures. […] Comparing to other combinatorial library studies, it is clear that even loaded with same cargoes and tested against same cell line, different lipidoids with different chemical structures could be internalized through very distinct pathways. Next, the genome-editing efficiencies of (−30)GFP-Cre/LNPs were determined by flow cytometry after 24 h of incubation (with 8 h of (−30)GFP-Cre/LNPs complex exposure). Three different concentrations of protein/lipidoid complexes (25 nM/1.7 μg mL^−1, 50 nM/3.4 μg mL^−1, and 100 nM/6.6 μg mL^−1) were tested for each lipidoid nanoparticle. […] For example, the DsRed^+ cells were recorded as 10.5%/24.9%/88.9%, 13.5%/55.4%/88.8%, and 27.7%/47.8%/94.7% for (−30)GFP-Cre loaded 75-OCholB, 76-OCholB and 77-OCholB, respectively, at the protein concentration of 25, 50 and 100 nM. […] Then, the cytotoxicity profiles of (−30)GFP-Cre/LNPs, (−30)GFP-Cre/Lpf2k and naked (−30)GFP-Cre at different concentrations against HeLa-DsRed cells (8 h of exposure; (−30)GFP-Cre/LNPs=25 nM/1.7 μg mL^−1, 50 nM/3.4 μg mL^−1, and 100 nM/6.6 μg mL^−1) are measured using MTT assay after 24 h of incubation. […] For (−30)GFP-Cre/75-OCholB treated cells, the viabilities were determined to be 95.5%, 91.8% and 83.1%, at the protein concentration of 25, 50 and 100 nM, respectively; the numbers for (−30)GFP-Cre/76-OCholB and (−30)GFP-Cre/77-OCholB are 97.8%/98.2%/97.2 and 100.9%/96.6%/98.6%. […] Meanwhile, the morphology changes of HeLa-DsRed cell treated with different nanoparticle formulations were studied and the results are shown in FIG. 15E. […] Samples found in upper left quadrant are non-toxic and inefficient for delivery; samples in lower left quadrant are toxic and inefficient; samples in lower right quadrant are efficient but toxic; samples in upper right quadrant are non-toxic and efficient, which would be top candidates for further study. It is clear that Lpf2k (shown in dotted purple circle) at high concentration is relatively efficient for genome editing, while also toxic to the target cells. On the other hand, most of the (−30)GFP-Cre loaded OCholB LNPs are almost non-toxic when compared to (−30)GFP-Cre/Lpf2k, similar to naked (−30)GFP-Cre protein. 87-OCholB, 90-OCholB and 304-OCholB (shown in dotted dark blue circle) are less efficient for genome-editing; while high genome editing efficacy and excellent tolerability were achieved by using 75-OCholB, 76-OCholB and 77-OCholB (shown in dotted green circle).

[3] = (−30)GFP-Cre 25 nM, lipid 1.7 μg mL^−1
[4] = (−30)GFP-Cre 50 nM, lipid 3.3 μg mL^−1
[5] = (−30)GFP-Cre 100 nM, lipid 6.6 μg mL^−1
[6] = protein/lipidoid 100 nM/6.6 μg mL^−1
[7] = protein/lipidoid 25 nM/1.7 μg mL^−1
[8] = protein/lipidoid 50 nM/3.4 μg mL^−1

SMILES | NR^+ cells (HeLa cells) [%] | GFP positive (GFP^+) cells (HeLa-DsRed cells [1]; [3]) [%] | GFP positive (GFP^+) cells (HeLa-DsRed cells [1]; [4]) [%] | GFP positive (GFP^+) cells (HeLa-DsRed cells [1]; [5]) [%] | mean fluorescence intensity of treated cells (HeLa-DsRed cells [1]) | DsRed^+ cells (HeLa-DsRed cells [2]; [6]) | cell morphology (bright field images) vs untreated cells (HeLa-DsRed cells [1]) | green fluorescence signals (fluorescent images) (HeLa-DsRed cells [1]) | DsRed^+ cells (HeLa-DsRed cells [2]; [7]) [%] | DsRed^+ cells (HeLa-DsRed cells [2]; [8]) [%] | genome editing efficacy (DsRed^+ cells), overall (HeLa-DsRed cells [2]; (−30)GFP-Cre 25, 50 and 100 nM)
CCN(CC)CCCN(CCC(=O)OCCSSCCNC(=O)OC1CCC2(C)C(=CCC3C2CCC2(C)C(C(C)CCCC(C)C)CCC32)C1)CCC(=O)OCCSSCCNC(=O)OC1CCC2(C)C(=CCC3C2CCC2(C)C(C(C)CCCC(C)C)CCC32)C1 (stereo not drawn) [Lipidoid 81-OCholB] | 27.0 | 40.9 | 87.4 | 91.5 | much more efficient than others | out-performed Lpf2k | – | – | – | – | –
CC(C)CCCC(C)C1CCC2C3CC=C4CC(OC(=O)NCCSSCCOC(=O)CCN(CCC(=O)OCCSSCCNC(=O)OC5CCC6(C)C(=CCC7C6CCC6(C)C(C(C)CCCC(C)C)CCC76)C5)CCN(C)C)CCC4(C)C3CCC12C (stereo not drawn) [Lipidoid 78-OCholB] | 92.3 | – | 46.1 | 90.1 | – | out-performed Lpf2k | – | – | – | – | –
CC(C)CCCC(C)C1CCC2C3CC=C4CC(OC(=O)NCCSSCCOC(=O)CCN(CCC(=O)OCCSSCCNC(=O)OC5CCC6(C)C(=CCC7C6CCC6(C)C(C(C)CCCC(C)C)CCC76)C5)CCN5CCCC5)CCC4(C)C3CCC12C (stereo not drawn) [Lipidoid 76-OCholB] | 65.0 | 66.4 | 96.3 | 98.7 | much more efficient than others | – | no evident morphological change | Strong green fluorescence signals | 13.5 | 55.4 | –
CC(C)CCCC(C)C1CCC2C3CC=C4CC(OC(=O)NCCSSCCOC(=O)CCN(CCC(=O)OCCSSCCNC(=O)OC5CCC6(C)C(=CCC7C6CCC6(C)C(C(C)CCCC(C)C)CCC76)C5)CCC5CCCN5C)CCC4(C)C3CCC12C (stereo not drawn) [Lipidoid 77-OCholB] | 90.3 | 66.4 | 90.7 | 97.9 | much more efficient than others | – | no evident morphological change | Strong green fluorescence signals | 27.7 | 47.8 | –
CC(C)CCCC(C)C1CCC2C3CC=C4CC(OC(=O)NCCSSCCOC(=O)CCN(C)CCN(CCN(C)CCC(=O)OCCSSCCNC(=O)OC5CCC6(C)C(=CCC7C6CCC6(C)C(C(C)CCCC(C)C)CCC76)C5)CCN(C)CCC(=O)OCCSSCCNC(=O)OC5CCC6(C)C(=CCC7C6CCC6(C)C(C(C)CCCC(C)C)CCC76)C5)CCC4(C)C3CCC12C (stereo not drawn) [Lipidoid 304-OCholB] | 22.8 | – | – | 48.8 | – | – | – | – | – | – | less efficient at delivery
CCN(CC)CCN(CCC(=O)OCCSSCCNC(=O)OC1CCC2(C)C(=CCC3C2CCC2(C)C(C(C)CCCC(C)C)CCC32)C1)CCC(=O)OCCSSCCNC(=O)OC1CCC2(C)C(=CCC3C2CCC2(C)C(C(C)CCCC(C)C)CCC32)C1 (stereo not drawn) [Lipidoid 75-OCholB] | 85.2 | – | 42.3 | 93.1 | much more efficient than others | – | no evident morphological change | Strong green fluorescence signals | 10.5 | 24.9 | –
CC(C)CCCC(C)C1CCC2C3CC=C4CC(OC(=O)NCCSSCCOC(=O)CCN(CCCN(C)C)CCC(=O)OCCSSCCNC(=O)OC5CCC6(C)C(=CCC7C6CCC6(C)C(C(C)CCCC(C)C)CCC76)C5)CCC4(C)C3CCC12C (stereo not drawn) [Lipidoid 80-OCholB] | 71.4 | 54.7 | 88.9 | 97.0 | much more efficient than others | out-performed Lpf2k | – | – | – | – | –
